From patent US20030130121A1, “Novel bacterial isolate and the preparation and use of its active metabolites” (priority 1999, published 2003)
Converted amounts (≈) assume the structure as drawn. “Also recorded” adds a separate entry of the source. Read-outs that look alike come from different tables or passages of the source.

Legend:
[1] = test system: A. fumigatus conidiospores; assay: Suppression of spore germination - microtiter plate assay 1; format: cell-based; conditions: Aspergillus fumigatus, read-out: Minimal Inhibitory Concentration (MIC) to totally inhibit spore germination
Method: (§1) To obtain the A. fumigatus conidiospores, the fungus was grown on ME slants for about 2 weeks at 28° C. The F. culmorum and F. oxysporum conidia, the H. annosum basidiospores, the M. canis macroconidia were produced by inoculating fungal plugs on Corn Meal Agar plates (CMA, Difco Ltd.), Hagem Agar plates (5 g glucose, 5 g ME, 0.5 g NH4NO3, 0.5 g KH2PO4, 0.5 g MgSO4×7H2O, 20 g Agar in 1000 ml deionized H2O) and Oat Meal Agar plates (60 g oat meal, 12.5 g Agar in 1000 ml deionized H2O), respectively, for a period of 5 to 10 days at 25° C. Ascospores of S. sclerotiorum were collected during their dispersal from apothecia by entrapping them on the surface of a water agar (12 g Bacto Agar (Difco Ltd)), 1000 ml H2O). Mature spores were then scraped off or washed out from the surface of the agar plates, with 0,5% Bacto Peptone (Difco Ltd) supplemented with 0.01% Tween 80. The P. ultimum sporangia were obtained by. growing the fungus on grass blades (Martin, 1992). The C. albicans stock culture of 1.0×10^6 cfu ml^−1 was prepared from a 24-hours old culture grown on Yeast Malt Agar plates (YM Agar, Difco Ltd) at 37° C. by suspending it in 0.5% Bacto Peptone and adjusting the optical density of this culture to an absorbance of 0.5 at 600 nm. The spore concentration was counted by using a Bürker chamber, and stock spore suspensions were stored at −70 ° C. for further use. The spore concentrations in respective stock suspensions, as well as the spore concentrations and media to culture fungi in a microtiter plate assay, are listed in Table 2 below.
(§2) To follow the activity during purification, HPLC-fractions to be tested were directly collected to 96-well microtiter plates by using a fraction collector (FC 204, Gilson), and mainly the activity to inhibit the germination of F. culmorum conidia and S. sclerotiorum ascospores was tested. […] The solvents were always evaporated, and one hundred μl of spore suspension, suspended in the appropriate media as listed in Table 2, were then distributed into each well. Depending on the fungus tested, the spore germination was monitored after 24 to 96 hours of incubation at 25° C. in darkness except for A. fumigatus and C. albicans which were incubated at 28 ° C. and 37 ° C. Controls were spores suspended in respective culturing media and culturing media only. All tests were done in triplicate and repeated at least twice.
(§3) The activity of haterumalide A, B and E, and of pyrrolnitrin to inhibit the spore germination of A. fumigatus, F. culmorum, F. oxysporum, H. annosum, M. canis, P. ultimum and S. sclerotiorum as well as the inhibition of the C. albicans growth was tested by using the microtiter plate assay 1 described in Example 7. The effect on apothecial formation of S. sclerotiorum sclerotia was assayed by using microtiter plate assay 2 described in Example 7.

F. culmorum conidia = assay: as above; format: cell-based; conditions: Fusarium culmorum, read-out: Minimal Inhibitory Concentration (MIC) to totally inhibit spore germination
Method: as §1, §2, §3

F. oxysporum conidia = assay: as above; format: cell-based; conditions: Fusarium oxysporum, read-out: Minimal Inhibitory Concentration (MIC) to totally inhibit spore germination
Method: as §1, §2, §3

H. annosum basidiospores = assay: as above; format: cell-based; conditions: Heterobasidion annosum, read-out: Minimal Inhibitory Concentration (MIC) to totally inhibit spore germination
Method: as §1, §2, §3

P. ultimum sporangia = assay: as above; format: cell-based; conditions: Globisporangium ultimum, read-out: Minimal Inhibitory Concentration (MIC) to totally inhibit spore germination
Method: as §1, §2, §3

M. canis macroconidia = assay: as above; format: cell-based, Microsporum canis var. canis; conditions: Microsporum canis, read-out: Minimal Inhibitory Concentration (MIC) to totally inhibit spore germination
Method: as §1, §2
as §3, with “The effect on apothecial formation of S. sclerotiorum sclerotia was assayed by using microtiter plate assay 2 described in Example 7.” left out

[2] = test system: S. sclerotiorum ascospores; assay: as above; format: cell-based, Sclerotinia sclerotiorum; conditions: for inhibition of ascospore germination: S. sclerotiorum, qualitative; for MIC: Sclerotinia sclerotiorum, read-out: Minimal Inhibitory Concentration (MIC) to totally inhibit spore germination
Method: as §1, §2, §3

[3] = test system: S. sclerotiorum sclerotia; assay: Suppression of apothecial formation - microtiter plate assay 2; format: cell-based, Sclerotinia sclerotiorum; conditions: for inhibition of apothecial formation of sclerotia: S. sclerotiorum, qualitative; for MIC: Sclerotinia sclerotiorum
Method: Twenty four-well microtiter plates were used to test the effect of the purified metabolites on apothecial formation in a concentration range between 0.01 μg ml^−1 and 100 μg ml^−1. To obtain respective concentrations of tested metabolites, the appropriate volume out of the respective metabolite stock solutions of 100 μg ml^−1, 10 μg ml^−1 and 1 μg ml^−1, dissolved in acetonitrile, was distributed into the wells and the solvent was then evaporated. Thereupon, the metabolites were dissolved in sterile H2O and one, or in some tests two, preconditioned sclerotia were placed into each well. Tests were done in triplicate and controls were sclerotia placed in sterile water only.
as §3

S. sclerotiorum mycelium = assay: Suppression of S. sclerotiorum mycelial growth, susceptibility test discs on PDA; format: cell-based, Sclerotinia sclerotiorum; conditions: for inhibition of mycelial growth: S. sclerotiorum, qualitative
Method: For testing effects of haterumalide A, halves of surface sterilized and bisected sclerotia were placed in the center PDA plates (9 cm in diameter) to initiate mycelial growth of S. sclerotiorum. The metabolite, at a concentration from 0.05 to 5 μg ml^−1 diluted in MeOH/H2O (1:1), was then spotted directly onto sterile antimicrobial susceptibility test discs (Oxoid Ltd) located at four equidistant places, giving a total of 0.2 to 20 μg ml^−1 compound per one Petri plate. The treatments were performed in triplicate. Zones of inhibition of mycelial growth were measured after 4 days and reduction of mycelial growth was calculated as a percentage of MeOH/H2O controls.

Stellaria media = assay: Foliar spraying of Stellaria media with A 153 culture preparations and haterumalide B; format: in vivo; conditions: Stellaria media 6-8 leaf stage; 4 ml/4 plants/pot; no concentration factor printed
Lemna minor = assay: Differentiation and growth of Lemna minor, 24-well microtiter plates; format: in vivo; conditions: for Number of Lemna minor fronts (leaves) per one microtiter plate well, End of test: 10 fronts at beginning, control 36
Method: Twenty four-well microtiter plates were used to test the effect of the purified haterumalide B on differentiation and growth of Lemna minor in a concentration range between 1 μg ml^−1 and 60 μg ml^−1. To obtain respective concentrations of the tested metabolite, the appropriate volume out of the respective metabolite stock solutions of 100 μg ml^−1 and 10 μg ml^−1, dissolved in acetonitrile, was distributed into the wells, and the solvent was then evaporated. Thereupon, the metabolite was dissolved in a sterile Lemna medium and three Lemna minor plants with 10 fronts were placed into each well. Tests were done in duplicate and controls were Lemna minor plants placed in only Lemna medium.

[4] = test system: green algae (Scenedesmus quadricauda); assay: Growth of green algae in Z8 medium; format: cell-based; conditions: concentrations similar to those used for the Lemna minor test; preliminary
Method: Additionally, the similar method was used to preliminary test the effect of haterumalide B on the growth of green algae (Scenedesmus quadricauda). Evaporated haterumalide B was dissolved in a sterile Z8 medium with the suspension of algae. Tests were performed in duplicate with suspensions of Scenedesmus quadricauda placed in only sterile Z8 medium as controls.

[5] = test system: S. sclerotiorum sclerotia; assay: Viability of recovered sclerotia; format: cell-based, Sclerotinia sclerotiorum
Method: The sclerotia were placed in 100 ml of deionized water for 10 minutes and subsequently. washed with running deionized water for 10 minutes. They were then transferred onto moistened filter paper in sealed Petri dishes and placed under light conditions suitable for induction of apothecial formation. […] These sclerotia were surface disinfected in 70% ethanol for 2 minutes, rinsed in sterile deionized water, bisected, transferred to PDA in Petri dishes, and observed for mycelial growth after 5 days.
All the preparations were prepared in such a way that their relative concentrations corresponded to those of the bacterial culture, i.e. 1.5×10^9 cfu ml^−1 (non-diluted), 0.75×10^9 cfu ml^−1 (diluted 1:1) and 0.375×10^9 cfu ml^−1 (diluted 1:3), and their apothecial suppressive activity was compared to the effect of such bacterial cultures tested simultaneously. Three Petri plates per treatment were used with sclerotia treated with deionized water, 50, 25 and 12, 5% strength TSB and 1, 0.5 and 0.25% methanol (MeOH) in deionized water, as controls. Inclusion of methanol controls reflected residual concentrations of methanol in the ethyl acetate extratct and aqueous phase. The suppression of apothecial formation after the treatment with various culture preparations was transformed to values of apothecia formed per one sclerotium as a percentage of water control. Sclerotia with suppressed apothecial formation were retrieved and their viability was tested as described above (Example 8).

[6] = test system: three classes of fungi other than Oomycetes; conditions: Strobel et al. (1999); inhibition of mycelial growth; cited from earlier work
[7] = read-out: Minimal Inhibitory Concentration (MIC) to totally inhibit apothecial formation of sclerotia, S. sclerotiorum sclerotia

SMILES | MIC [1] | MIC (F. culmorum conidia) | MIC (F. oxysporum conidia) | MIC (H. annosum basidiospores) | MIC (P. ultimum sporangia) | MIC (M. canis macroconidia) | inhibition of ascospore germination [2] | MIC [2] | inhibition of apothecial formation of sclerotia [3] | MIC [3, 7] | inhibition of mycelial growth (S. sclerotiorum mycelium) | also measured
C/C1=C/C/C=C(\Cl)CCC2CC(OC(=O)C[C@@H]1O)[C@H]([C@H](O)/C=C(\C)CC(=O)O)O2 (some centres unmarked) [Haterumalide E] | 15 µg/mL (≈ 35 µM) | 5 µg/mL (≈ 11.7 µM) | 25 µg/mL (≈ 58.3 µM) | < 50 µg/mL | 8 µg/mL (≈ 18.7 µM) | < 75 µg/mL | ability to inhibit | 3 µg/mL (≈ 6.99 µM) | ability to inhibit | 0.5 µg/mL (≈ 1.17 µM) | ability to inhibit | –
C=C(COC(=O)C/C(C)=C/[C@@H](O)[C@@H]1OC2CC/C(Cl)=C/C/C=C(/C)[C@@H](OC(C)=O)CC(=O)OC1C2)C(C)=O (some centres unmarked) [Haterumalide B] | 13 µg/mL (≈ 23.5 µM) | 1 µg/mL (≈ 1.81 µM) | 0.8 µg/mL (≈ 1.45 µM) | 20 µg/mL (≈ 36.2 µM) | 1 µg/mL (≈ 1.81 µM) | 40 µg/mL (≈ 72.3 µM) | ability to inhibit | 3 µg/mL (≈ 5.42 µM) | ability to inhibit | 0.5 µg/mL (≈ 0.904 µM) | ability to inhibit | Plants Surviving (Stellaria media): 0.0; Shot Fresh Weight (Stellaria media): 0.1 g; Number of Lemna minor fronts (leaves) per one microtiter plate well, End of test (Lemna minor; 1 μg ml-1): 10; Number of Lemna minor fronts (leaves) per one microtiter plate well, End of test (Lemna minor; 5 μg ml-1): 10; Number of Lemna minor fronts (leaves) per one microtiter plate well, End of test (Lemna minor; 10 μg ml-1): 10; Number of Lemna minor fronts (leaves) per one microtiter plate well, End of test (Lemna minor; 30 μg ml-1): 10; Number of Lemna minor fronts (leaves) per one microtiter plate well, End of test (Lemna minor; 60 μg ml-1): 10; Visible effects on Lemna fronts (Lemna minor; at all tested concentrations (1 to 60 μg ml-1)): fronts impaired and totally; also recorded: chlorotic; differentiation and growth of Lemna minor (Lemna minor; at all tested concentrations (1 to 60 μg ml^−1)): totally inhibited; growth of green algae [4]: inhibits the growth
CC(=O)O[C@H]1CC(=O)OC2CC(CC/C(Cl)=C/C/C=C\1C)O[C@H]2[C@H](O)/C=C(\C)CC(=O)O (some centres unmarked) [Haterumalide A] | 5 µg/mL (≈ 10.6 µM) | 2 µg/mL (≈ 4.25 µM) | 0.8 µg/mL (≈ 1.7 µM) | 35 µg/mL (≈ 74.3 µM) | 0.4 µg/mL (≈ 0.849 µM) | 15 µg/mL (≈ 31.9 µM) | ability to inhibit | 0.8 µg/mL (≈ 1.7 µM) | ability to inhibit | – | ability to inhibit | mycelial growth of retrieved sclerotia on PDA plates ([5]; sclerotia treated with 10 μg ml^−1): no mycelial growth; apothecial formation of retrieved sclerotia on moistened filter paper ([5]; sclerotia treated with 0.5 and 1 μg ml^−1): produced apothecia; mycelial growth of retrieved sclerotia on PDA plates ([5]; sclerotia treated with 3 and 5 μg ml^−1): produced mycelium; carpogenic germination of retrieved sclerotia ([5]; sclerotia treated with 3 to 10 μg ml^−1): total inhibition; inhibition of mycelial growth of S. sclerotiorum (S. sclerotiorum mycelium; 0.05 to 0.1 μg ml^−1 per disc, 4 days): did not inhibit; activity against three classes of fungi other than Oomycetes [6]: little or no activity
O=[N+]([O-])c1c(Cl)cccc1-c1c[nH]cc1Cl [Pyrrolnitrin, pyrrolnitrin, reference compound] | – | 0.06 µg/mL (≈ 0.233 µM) | – | – | – | – | – | – | – | – | – | MIC ([1]; A. fumigatus): 3 µg/mL (≈ 11.7 µM); MIC (F. oxysporum conidia; F. oxysporum): 20 µg/mL (≈ 77.8 µM); MIC (H. annosum basidiospores; H. annosum): 50 µg/mL (≈ 194 µM); MIC (P. ultimum sporangia; P. ultimum): < 50 µg/mL; MIC (M. canis macroconidia; M. canis): 1 µg/mL (≈ 3.89 µM); MIC ([2]; S. sclerotiorum ascospores): 10 µg/mL (≈ 38.9 µM); MIC ([3]; S. sclerotiorum sclerotia, read-out: Minimal Inhibitory Concentration (MIC) to totally inhibit apothecial formation of sclerotia): < 100 µg/mL
CC(=O)O[C@H]1CC(=O)OC2CC(CC/C(Cl)=C/C/C=C\1C)O[C@H]2[C@H]1C=C(C)CC(=O)O1 (some centres unmarked) [Haterumalide X] | – | – | – | – | – | – | ability to inhibit | – | ability to inhibit | – | ability to inhibit | –
